Test results: patent publication US7157079B2, “Combined tumor suppressor gene therapy and chemotherapy in the treatment of neoplasms” (priority 1997, dated 2007)

Tests used:
[1] = system: MRC-9 diploid fibroblast cells; test: 3H-thymidine incorporation growth assay in normal cells; format: cell-based; conditions: MRC-9 vs tumor cells; FIG. 9
Description: In a second experiment, the efficacy of treatment of normal cells (MRC-9 cells) was compared with tumor cells (FIG. 9). In this experiment, growth was assayed as ^3H-thymidine incorporation rather than the MTT assay. […] As would be expected, the effect of tumor suppressor alone was negligible in normal cells and highly significant in tumor cells.

[2] = system: SK-OV-3 ovarian tumor cells; test: MTT cell death assay, p53 adenovirus combined with anti-cancer drug; format: cell-based, human; conditions: FIG. 1, TAXOL 0.001-20 μg/ml, p53 Ad 0.5-50 m.o.i., MTT on day 3
Description: In treatment three, the cells were contacted simultaneously with both the TAXOL® and the p53 adenovirus. Thus, the p53 Ad and TAXOL® can be administered within the same twenty four (24) hour period or concurrently.
Approximately 1.5×10^4 cells in culture medium (head and neck cell lines SCC-9, SCC-15, and SCC-25 in 1:1 mix of DMEM+ Ham's F12 media with 0;4 μg/ml cortisol and 10% FBS and 1% non-essential amino acids, prostate DU-145 and Ovarian SK-OV-3 in Eagles essential medium plus 10% FBS) were added to each well on a 96 well microtitre plate and cultured for about 4 hours at 37° C. and 5% CO2.
Cell death was then quantitated according to the method of Mosmann (1983) J. Immunol. Meth., 65: 55–63.
Dosing was performed as described above. Cell death was quantitated on day 3 using the MTT assay as described above. In addition, a dose response curve for p53 Ad alone (using the doses listed in Table 2) was generated (after […] cell exposure to the drug) and a dose response curve for TAXOL® alone was performed using the doses listed above (3 day cell exposure to the drug).
All cell lines were obtained from ATCC (Rockville, Md.). […]

[3] = system: intraperitoneal SK-OV-3 tumors; test: SK-OV-3 ovarian tumor model, cisplatin efficacy; format: in vivo, scid mice; conditions: day 20
Description: There were normally ten mice per group.
Established intraperitoneal SK-OV-3 tumors were treated with intraperitoneal doses of vehicles, p53 Ad, cisplatin, or both drugs. Mice were given six injections of p53 Ad over a period of two weeks. The total virus dose was 1.5×10^9 C.I.U. (3.1×10^10 viral particles).
Cisplatin efficacy: Female scid mice were injected with 5×10^6 SK-OV-3 ovarian tumor cells, I.P., on day 0. Mice were dosed I.P. on days 6, 8, 10, 13, 15, and 17 (p53 Ad only on D17). Mice received 0.2 ml total volume (0.1 ml cisplatin vehicle or cisplatin plus 0.1 ml Ad buffer or p53 Ad). The p53 Ad dose was 2.5×10^8 C.I.U./mouse/day (5.2×10^9 viral particles). The cisplatin dose was 2 mg/kg/day. Tumors were harvested and weighed on day 20.

MDA-MB-231 tumors = test: Tumor growth with adenovirus in the absence or presence of low dose dexamethasone; conditions: s.c. pellet releasing 83.3 μg dexamethasone/day
Description: To investigate whether the immunosuppressant properties of low dose Dexamethasone (Dex) can inhibit the anti-adenovirus immune response (e.g., NK cell response) MDA-MB-231 tumors in scid mice were treated with recombinant virus of the invention in the absence and in the presence of dexamethasone.
Approximately 5×10^6 MDA-MB-231 cells/mouse were injected into the mammary fat pads of female scid mice on day 0. On day 11, dexamethasone or placebo pellets were implanted subcutaneously. The 5 mg pellets were designed to release 83.3 μg dexamethasone/day continuously for 60 days (Innovative Research of America, Sarasota, Fla.). All mice received a total of 10 peritumoral injections given once a day on days 14–18 and 21–25 (0.1 ml per injection).

In the case of O=c1[nH]cc(F)c(=O)[nH]1 [5-FU, 5-fluorouracil], the “effect of anti-cancer chemotherapeutic alone, normal vs cancer cells” value (from here on “effect … vs cancer cells”) [1] is reported as “more effective in normal cells than cancer cells”.
CC(=O)O[C@H]1C(=O)[C@@]2(C)[C@H]([C@H](OC(=O)c3ccccc3)[C@]3(O)C[C@H](OC(=O)[C@H](O)[C@@H](NC(=O)c4ccccc4)c4ccccc4)C(C)=C1C3(C)C)[C@]1(OC(C)=O)CO[C@@H]1C[C@@H]2O [TAXOL ®, paclitaxel] was tested, and the “inhibition of cell proliferation (as compared to the buffer control)” value [2] was “decreased the rate of cell proliferation”.
For N.N.[Cl][Pt][Cl] [cisplatin], the “effect … vs cancer cells” value [1] was “more effective in normal cells than cancer cells” and the “bloody ascites and invasive tumor nodules in the diaphragm muscle” value [3] was “absent”.
With C[C@@H]1C[C@H]2[C@@H]3CCC4=CC(=O)C=C[C@]4(C)[C@@]3(F)[C@@H](O)C[C@]2(C)[C@@]1(O)C(=O)CO [dexamethasone] the adverse side effects (MDA-MB-231 tumors) was “No adverse side effects” and the “effect on the growth rate of tumors” value (MDA-MB-231 tumors) was “no significant effect”.
For COc1cccc2c1C(=O)c1c(O)c3c(c(O)c1C2=O)C[C@@](O)(C(=O)CO)C[C@@H]3O[C@H]1C[C@H](N)[C@H](O)[C@H](C)O1 [doxorubicin], the “effect … vs cancer cells” value [1] was “more effective in normal cells than cancer cells”.
In the case of COc1cc([C@@H]2c3cc4c(cc3[C@@H](O[C@@H]3O[C@@H]5CO[C@@H](C)O[C@H]5[C@H](O)[C@H]3O)[C@H]3COC(=O)[C@H]23)OCO4)cc(OC)c1O [etoposide], the “effect … vs cancer cells” value [1] is reported as “more effective in normal cells than cancer cells”.
CN(Cc1cnc2nc(N)nc(N)c2n1)c1ccc(C(=O)N[C@@H](CCC(=O)O)C(=O)O)cc1 [methotrexate] was tested, and the “effect … vs cancer cells” value [1] was “more effective in normal cells than cancer cells”.
